Experimental data from paper PMC7827085 (Pharmaceutics, 2021).
pEC50: −log10 of the molar value.

Tests used:
[1] = target: T1, OATP1A2 (Homo sapiens, UniProt P46721); assay: in vitro; details: A431 cells overexpressing OATP1A2, pH 7, probe sulforhodamine 101, 0.5 µM
T1 sequence (P46721 1-670): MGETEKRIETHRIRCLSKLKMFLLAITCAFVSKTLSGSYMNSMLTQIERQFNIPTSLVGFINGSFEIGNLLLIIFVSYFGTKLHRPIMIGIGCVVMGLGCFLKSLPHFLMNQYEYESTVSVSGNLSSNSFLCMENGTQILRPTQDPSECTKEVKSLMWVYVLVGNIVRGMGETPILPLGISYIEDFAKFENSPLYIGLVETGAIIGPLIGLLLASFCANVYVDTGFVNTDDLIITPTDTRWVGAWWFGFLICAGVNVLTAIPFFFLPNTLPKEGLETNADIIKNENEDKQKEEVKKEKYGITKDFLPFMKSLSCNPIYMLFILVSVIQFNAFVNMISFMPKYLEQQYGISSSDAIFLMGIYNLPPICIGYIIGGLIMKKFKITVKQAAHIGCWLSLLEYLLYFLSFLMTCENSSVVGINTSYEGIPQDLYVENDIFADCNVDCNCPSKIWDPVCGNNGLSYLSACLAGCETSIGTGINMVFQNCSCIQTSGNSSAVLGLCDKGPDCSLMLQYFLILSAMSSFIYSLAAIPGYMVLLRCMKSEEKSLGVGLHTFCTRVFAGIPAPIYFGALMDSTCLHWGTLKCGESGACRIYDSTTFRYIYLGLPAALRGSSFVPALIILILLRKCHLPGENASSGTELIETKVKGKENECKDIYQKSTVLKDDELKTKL

[2] = target: T1, OATP1A2; details: based on the IC50 values
[3] = target: T2, ABCB1/Pgp (Homo sapiens, UniProt P08183); assay: ABCB1-ATPase activity in Sf9 membrane vesicles; format: biochemical
T2 construct: made in house; host or cells: Sf9 insect cells
T2 sequence (P08183 whole entry): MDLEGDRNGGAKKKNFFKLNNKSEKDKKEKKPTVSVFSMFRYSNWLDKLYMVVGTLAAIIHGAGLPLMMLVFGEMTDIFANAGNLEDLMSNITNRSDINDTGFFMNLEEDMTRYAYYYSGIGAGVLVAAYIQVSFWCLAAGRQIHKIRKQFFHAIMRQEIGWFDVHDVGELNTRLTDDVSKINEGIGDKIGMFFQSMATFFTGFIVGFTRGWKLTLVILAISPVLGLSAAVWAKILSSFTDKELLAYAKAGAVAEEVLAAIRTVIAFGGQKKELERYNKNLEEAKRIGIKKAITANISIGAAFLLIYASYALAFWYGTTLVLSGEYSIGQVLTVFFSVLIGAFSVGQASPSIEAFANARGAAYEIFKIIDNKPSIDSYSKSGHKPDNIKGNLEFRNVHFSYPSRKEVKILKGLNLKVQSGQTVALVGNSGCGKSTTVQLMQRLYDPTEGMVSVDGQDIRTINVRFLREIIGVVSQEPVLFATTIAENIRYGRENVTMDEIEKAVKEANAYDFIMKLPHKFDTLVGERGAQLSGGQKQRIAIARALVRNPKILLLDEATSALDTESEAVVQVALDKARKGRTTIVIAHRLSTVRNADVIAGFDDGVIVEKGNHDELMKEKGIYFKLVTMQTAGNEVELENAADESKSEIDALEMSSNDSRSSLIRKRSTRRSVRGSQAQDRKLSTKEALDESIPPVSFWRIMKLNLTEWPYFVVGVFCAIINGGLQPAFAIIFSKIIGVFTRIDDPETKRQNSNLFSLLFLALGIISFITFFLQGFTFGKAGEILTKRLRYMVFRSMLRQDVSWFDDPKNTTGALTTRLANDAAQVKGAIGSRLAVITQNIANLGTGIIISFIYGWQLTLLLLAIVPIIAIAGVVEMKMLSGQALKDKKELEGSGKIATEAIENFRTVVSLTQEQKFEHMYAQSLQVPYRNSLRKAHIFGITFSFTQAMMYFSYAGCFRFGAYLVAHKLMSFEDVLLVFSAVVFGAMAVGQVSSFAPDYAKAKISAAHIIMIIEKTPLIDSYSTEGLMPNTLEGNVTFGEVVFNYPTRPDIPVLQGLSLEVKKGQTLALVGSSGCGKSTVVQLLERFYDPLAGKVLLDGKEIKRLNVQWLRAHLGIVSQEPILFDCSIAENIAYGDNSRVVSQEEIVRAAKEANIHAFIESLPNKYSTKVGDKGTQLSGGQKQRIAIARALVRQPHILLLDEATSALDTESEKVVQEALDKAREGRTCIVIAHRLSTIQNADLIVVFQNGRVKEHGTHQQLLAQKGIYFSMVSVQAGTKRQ
Method: ABC transporter ATPase activity was measured in Sf9 membrane vesicles containing the respective human ABC transporters. For ABCG2/BCRP, the cholesterol level in the vesicles was increased to the level of mammalian cell membranes for full activity. For ABCB1/Pgp 20 μg/150 μL and for ABCG2/BCRP 10 μg/150 μL, vesicles were incubated with 3 mM Mg-ATP for 25 min at 37 °C. The test drugs were dissolved in DMSO and 1 µL was added to the samples. The ABC transporter-related ATPase activity was determined and reference activators (50 µM verapamil for ABCB1 and 5 µM quercetin for ABCG2) served as controls.
Drug-stimulated ATPase activity of the ABCB1 transporter is a well-documented functional assay employed to estimate the substrate or inhibitory features of various drugs. […] In this assay, most transported substrates show a biphasic curve: Low concentrations stimulate, while higher concentrations inhibit, the ATPase activity. In these experiments, we measured the vanadate-sensitive (ABC transporter-related) ABCB1-ATPase activity in membrane vesicles isolated from ABCB1 overexpressing Sf9 cells.

[4] = cited from earlier work
[5] = target: T3, ABCG2/BCRP (Homo sapiens, UniProt Q9UNQ0); assay: ABCG2-ATPase activity in Sf9 membrane vesicles; format: biochemical; parameters: expressed in transfected cells; host or cells: PLB-985; details: Sf9/ABCG2 membranes
T3 sequence (Q9UNQ0 1-655): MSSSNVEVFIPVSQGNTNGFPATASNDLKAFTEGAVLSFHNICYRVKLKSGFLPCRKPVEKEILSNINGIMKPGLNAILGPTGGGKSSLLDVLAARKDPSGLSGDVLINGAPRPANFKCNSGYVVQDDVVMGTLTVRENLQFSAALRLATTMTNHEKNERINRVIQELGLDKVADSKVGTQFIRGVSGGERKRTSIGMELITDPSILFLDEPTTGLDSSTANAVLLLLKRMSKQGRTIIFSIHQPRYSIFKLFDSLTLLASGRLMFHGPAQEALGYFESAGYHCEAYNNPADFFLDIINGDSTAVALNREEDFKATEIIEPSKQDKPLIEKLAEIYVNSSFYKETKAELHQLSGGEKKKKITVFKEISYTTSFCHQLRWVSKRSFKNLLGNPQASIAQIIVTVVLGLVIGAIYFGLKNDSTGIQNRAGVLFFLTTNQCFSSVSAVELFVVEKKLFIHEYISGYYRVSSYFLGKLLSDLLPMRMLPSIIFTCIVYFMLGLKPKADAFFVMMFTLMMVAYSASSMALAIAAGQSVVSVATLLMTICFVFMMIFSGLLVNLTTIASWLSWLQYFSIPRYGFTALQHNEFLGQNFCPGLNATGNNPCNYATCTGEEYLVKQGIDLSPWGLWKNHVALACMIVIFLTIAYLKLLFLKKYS
Method: ABC transporter ATPase activity was measured in Sf9 membrane vesicles containing the respective human ABC transporters [46, 47, 48, 49, 50]. For ABCG2/BCRP, the cholesterol level in the vesicles was increased to the level of mammalian cell membranes for full activity [49]. For ABCB1/Pgp 20 μg/150 μL and for ABCG2/BCRP 10 μg/150 μL, vesicles were incubated with 3 mM Mg-ATP for 25 min at 37 °C. The test drugs were dissolved in DMSO and 1 µL was added to the samples. The ABC transporter-related ATPase activity was determined and reference activators (50 µM verapamil for ABCB1 and 5 µM quercetin for ABCG2) served as controls.
Drug-stimulated ATPase activity of the ABCG2 transporter was also measured in the present study.

NC(=O)c1nc(F)c[nH]c1=O [favipiravir]
IC50 at 10 min [1]: > 50 µM

CCN(CCO)CCCC(C)Nc1ccnc2cc(Cl)ccc12 (stereo not drawn) [hydroxychloroquine]
Fold lower affinity for OATP1A2 than lopinavir, ritonavir, remdesivir and ivermectin [2]: 3–10 fold

CCC(CC)COC(=O)[C@H](C)N[P@](=O)(OC[C@H]1O[C@@](C#N)(c2ccc3c(N)ncnn23)[C@H](O)[C@@H]1O)Oc1ccccc1 [remdesivir]
pEC50 [3]: ~5.00
Concentration at which ABCB1-ATPase activity was increased ([3]; Sf9/ABCB1 membranes): 10 to 50 µM
Effect on ABCB1-ATPase activity (in words) ([3]; Sf9/ABCB1 membranes, 50 µM verapamil as reference activator): significant ABCB1-ATPase stimulation
Plasma concentration, peak values [4]: 3 to 5 µM
Reported peak plasma concentration ([4]; reported, reference not given): about 5 μM
Concentration at which baseline ABCG2-ATPase activity was inhibited [5]: 20 to 50 µmol
Effect on baseline ABCG2-ATPase activity (in words) ([5]; ivermectin, ritonavir, lopinavir at low micromolar, remdesivir at higher concentrations): significantly inhibited
